Results published in US20170334899A1, “AMINO-SUBSTITUTED ISOTHIAZOLES” (Bayer Pharma Aktiengesellschaft, priority 2014, published 2017).
Like-named read-outs stand apart in the source and are kept apart here.

Key:
[1] = tested on: human cervical tumor cell line HeLa (ATCC CCL-2); assay: SAC-Formation - Nocodazole-Induced Assay; format: cell-based; details: Homo sapiens, HeLa, 24 h, HeLa cells, nocodazole 0.1 μg/ml together with test compound, decrease of mitotic cells (phospho-histone H3 Ser10)
Outline: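 HeLa cells, plated overnight, were treated 24 h at 37 °C with nocodazole (0.1 μg/ml final) plus test compound (0.005–20 μM, 0.5% DMSO) added at the same time. After fixation, anti-phospho-histone H3 Ser10 and Hoechst staining gave the mitotic cell fraction by imaging. Values came from four-parameter Hill fits.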

HeLa = assay: Proliferation assay (crystal violet), HeLa; format: cell-based; details: HeLa cells, 4 days incubation, crystal violet staining, read-out: IC50 inhibition of proliferation, HeLa
Outline: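 Seed 1000–5000 cells/well, 10% FCS; 24 h later replace medium and add compound (0.001–10 μM, 0.5% DMSO); incubate 4 d; glutaraldehyde fix, 0.1% crystal violet pH 3.0, elute with 10% acetic acid; A595; 4-parameter IC50.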

IC50 [1] [nM] | IC50 (HeLa; Homo sapiens, HeLa, 96 h) [nM] | IC50 (HeLa) [nM] | SMILES
35 | 1300 | – | Cc1nsc(Nc2cnc(C(F)(F)F)cn2)c1C(=O)Nc1ccc(OC2CCCN(CCF)C2)nc1 (stereo not drawn) [Example 329, N-(6-{[1-(2-fluoroethyl)piperidin-3-yl]oxy}pyridin-3-yl)-3-methyl-5-{[5-(trifluoromethyl)pyrazin-2-yl]amino}-1,2-thiazole-4-carboxamide]
23 | 1200 | – | Cc1nsc(Nc2cnc(C(F)(F)F)cn2)c1C(=O)Nc1ccc(OC2CCCN(CC(F)F)C2)nc1 (stereo not drawn) [Example 330, N-(6-{[1-(2,2-difluoroethyl)piperidin-3-yl]oxy}pyridin-3-yl)-3-methyl-5-{[5-(trifluoromethyl)pyrazin-2-yl]amino}-1,2-thiazole-4-carboxamide]
6.2 | 260 | – | Cc1nsc(Nc2cnc(C(F)(F)F)cn2)c1C(=O)Nc1ccc(OC2CCCN(CC(F)(F)F)C2)nc1 (stereo not drawn) [Example 331, 3-methyl-N-(6-{[1-(2,2,2-trifluoroethyl)piperidin-3-yl]oxy}pyridin-3-yl)-5-{[5-(trifluoromethyl)pyrazin-2-yl]amino}-1,2-thiazole-4-carboxamide]
7.1 | 350 | – | Cc1nsc(Nc2cnc(C(F)(F)F)cn2)c1C(=O)Nc1ccc(OC2CCCN(CCC(F)(F)F)C2)nc1 (stereo not drawn) [Example 332, 3-methyl-5-{[5-(trifluoromethyl)pyrazin-2-yl]amino}-N-(6-{[1-(3,3,3-trifluoropropyl)piperidin-3-yl]oxy}pyridin-3-yl)-1,2-thiazole-4-carboxamide]
73 | 1200 | – | Cc1nsc(Nc2cnc(C(F)(F)F)cn2)c1C(=O)Nc1ccc(OC2CCCN(C(CF)CF)C2)nc1 (stereo not drawn) [Example 333, N-(6-{[1-(1,3-difluoropropan-2-yl)piperidin-3-yl]oxy}pyridin-3-yl)-3-methyl-5-{[5-(trifluoromethyl)pyrazin-2-yl]amino}-1,2-thiazole-4-carboxamide]
47 | – | 370 | Cc1nsc(Nc2cnc(C(F)(F)F)cn2)c1C(=O)Nc1ccc(F)c(OCC2CCCN(CC(F)F)C2)c1 (stereo not drawn) [Example 334, N-(3-{[1-(2,2-difluoroethyl)piperidin-3-yl]methoxy}-4-fluorophenyl)-3-methyl-5-{[5-(trifluoromethyl)pyrazin-2-yl]amino}-1,2-thiazole-4-carboxamide]
49 | 390 | – | Cc1nsc(Nc2cnc(C(F)(F)F)cn2)c1C(=O)Nc1ccc(F)c(OCC2CCCN(CCF)C2)c1 (stereo not drawn) [Example 336, N-(4-fluoro-3-{[1-(2-fluoroethyl)piperidin-3-yl]methoxy}phenyl)-3-methyl-5-{[5-(trifluoromethyl)pyrazin-2-yl]amino}-1,2-thiazole-4-carboxamide]
61 | 370 | – | Cc1nsc(Nc2cnc(C(F)(F)F)cn2)c1C(=O)Nc1ccc(F)c(OCC2CCCN(CC(F)(F)F)C2)c1 (stereo not drawn) [Example 337, N-(4-fluoro-3-{[1-(2,2,2-trifluoroethyl)piperidin-3-yl]methoxy}phenyl)-3-methyl-5-{[5-(trifluoromethyl)pyrazin-2-yl]amino}-1,2-thiazole-4-carboxamide]
27 | 450 | – | Cc1nsc(Nc2cnc(C(F)(F)F)cn2)c1C(=O)Nc1ccc(F)c(OCC2CCCN(CCC(F)(F)F)C2)c1 (stereo not drawn) [Example 338, N-(4-fluoro-3-{[1-(3,3,3-trifluoropropyl)piperidin-3-yl]methoxy}phenyl)-3-methyl-5-{[5-(trifluoromethyl)pyrazin-2-yl]amino}-1,2-thiazole-4-carboxamide]
40 | 380 | – | Cc1nsc(Nc2cnc(C(F)(F)F)cn2)c1C(=O)Nc1ccc(F)c(OC[C@@H]2CCN(CC(F)(F)F)C2)c1 [Example 339, N-(4-fluoro-3-{[(3R)-1-(2,2,2-trifluoroethyl)pyrrolidin-3-yl]methoxy}phenyl)-3-methyl-5-{[5-(trifluoromethyl)pyrazin-2-yl]amino}-1,2-thiazole-4-carboxamide]
33 | 430 | – | Cc1nsc(Nc2cnc(C(F)(F)F)cn2)c1C(=O)Nc1ccc(F)c(OC[C@@H]2CCN(CCC(F)(F)F)C2)c1 [Example 340, N-(4-fluoro-3-{[(3R)-1-(3,3,3-trifluoropropyl)pyrrolidin-3-yl]methoxy}phenyl)-3-methyl-5-{[5-(trifluoromethyl)pyrazin-2-yl]amino}-1,2-thiazole-4-carboxamide]
27 | 440 | – | Cc1nsc(Nc2cnc(C(F)(F)F)cn2)c1C(=O)Nc1ccc(F)c(OC[C@@H]2CCCN(CC(F)F)C2)c1 [Example 341, N-(3-{[(3R)-1-(2,2-difluoroethyl)piperidin-3-yl]methoxy}-4-fluorophenyl)-3-methyl-5-{[5-(trifluoromethyl)pyrazin-2-yl]amino}-1,2-thiazole-4-carboxamide]
72 | 470 | – | Cc1nsc(Nc2cnc(C(F)(F)F)cn2)c1C(=O)Nc1ccc(F)c(OC[C@@H]2CCCN(CC(F)(F)F)C2)c1 [Example 342, N-(4-fluoro-3-{[(3R)-1-(2,2,2-trifluoroethyl)piperidin-3-yl]methoxy}phenyl)-3-methyl-5-{[5-(trifluoromethyl)pyrazin-2-yl]amino}-1,2-thiazole-4-carboxamide]
210 | 1400 | – | Cc1nsc(Nc2cncc(C(F)(F)F)n2)c1C(=O)Nc1ccc(F)c(OC2CCN(CCC(F)(F)F)CC2)c1 [Example 343, N-(4-fluoro-3-{[1-(3,3,3-trifluoropropyl)piperidin-4-yl]oxy}phenyl)-3-methyl-5-{[6-(trifluoromethyl)pyrazin-2-yl]amino}-1,2-thiazole-4-carboxamide]
290 | 990 | – | Cc1nsc(Nc2cnc(C(F)(F)F)cn2)c1C(=O)Nc1ccc(OCC2CCN(CCF)CC2)nc1 [Example 344, N-(6-{[1-(2-fluoroethyl)piperidin-4-yl]methoxy}pyridin-3-yl)-3-methyl-5-{[5-(trifluoromethyl)pyrazin-2-yl]amino}-1,2-thiazole-4-carboxamide]
28 | 270 | – | Cc1nsc(Nc2cnc(C(F)(F)F)cn2)c1C(=O)Nc1ccc(OCC2CCN(CC(F)F)CC2)nc1 [Example 345, N-(6-{[1-(2,2-difluoroethyl)piperidin-4-yl]methoxy}pyridin-3-yl)-3-methyl-5-{[5-(trifluoromethyl)pyrazin-2-yl]amino}-1,2-thiazole-4-carboxamide]
33 | 270 | – | Cc1nsc(Nc2cnc(C(F)(F)F)cn2)c1C(=O)Nc1ccc(OCC2CCN(CC(F)(F)F)CC2)nc1 [Example 346, 3-methyl-N-(6-{[1-(2,2,2-trifluoroethyl)piperidin-4-yl]methoxy}pyridin-3-yl)-5-{[5-(trifluoromethyl)pyrazin-2-yl]amino}-1,2-thiazole-4-carboxamide]
40 | 390 | – | Cc1nsc(Nc2cnc(C(F)(F)F)cn2)c1C(=O)Nc1ccc(OCC2CCN(CCC(F)(F)F)CC2)nc1 [Example 347, 3-methyl-5-{[5-(trifluoromethyl)pyrazin-2-yl]amino}-N-(6-{[1-(3,3,3-trifluoropropyl)piperidin-4-yl]methoxy}pyridin-3-yl)-1,2-thiazole-4-carboxamide]
310 | 1000 | – | Cc1nsc(Nc2cnc(C(F)(F)F)cn2)c1C(=O)Nc1ccc(OCCN(C)CCF)nc1 [Example 348, N-(6-{2-[(2-fluoroethyl)(methyl)amino]ethoxy}pyridin-3-yl)-3-methyl-5-{[5-(trifluoromethyl)pyrazin-2-yl]amino}-1,2-thiazole-4-carboxamide]
81 | 350 | – | Cc1nsc(Nc2cnc(C(F)(F)F)cn2)c1C(=O)Nc1ccc(OCCN(C)CC(F)F)nc1 [Example 349, N-(6-{2-[(2,2-difluoroethyl)(methyl)amino]ethoxy}pyridin-3-yl)-3-methyl-5-{[5-(trifluoromethyl)pyrazin-2-yl]amino}-1,2-thiazole-4-carboxamide]
99 | 280 | – | Cc1nsc(Nc2cnc(C(F)(F)F)cn2)c1C(=O)Nc1ccc(OCCN(C)CC(F)(F)F)nc1 [Example 350, 3-methyl-N-(6-{2-[methyl(2,2,2-trifluoroethyl)amino]ethoxy}pyridin-3-yl)-5-{[5-(trifluoromethyl)pyrazin-2-yl]amino}-1,2-thiazole-4-carboxamide]
98 | 350 | – | Cc1nsc(Nc2cnc(C(F)(F)F)cn2)c1C(=O)Nc1ccc(OCCN(C)CCC(F)(F)F)nc1 [Example 351, 3-methyl-N-(6-{2-[methyl(3,3,3-trifluoropropyl)amino]ethoxy}pyridin-3-yl)-5-{[5-(trifluoromethyl)pyrazin-2-yl]amino}-1,2-thiazole-4-carboxamide]
470 | 1100 | – | Cc1nsc(Nc2cnc(C(F)(F)F)cn2)c1C(=O)Nc1ccc(OCCCN(C)CCF)nc1 [Example 352, N-(6-{3-[(2-fluoroethyl)(methyl)amino]propoxy}pyridin-3-yl)-3-methyl-5-{[5-(trifluoromethyl)pyrazin-2-yl]amino}-1,2-thiazole-4-carboxamide]
96 | 330 | – | Cc1nsc(Nc2cnc(C(F)(F)F)cn2)c1C(=O)Nc1ccc(OCCCN(C)CC(F)F)nc1 [Example 353, N-(6-{3-[(2,2-difluoroethyl)(methyl)amino]propoxy}pyridin-3-yl)-3-methyl-5-{[5-(trifluoromethyl)pyrazin-2-yl]amino}-1,2-thiazole-4-carboxamide]
